Literature values, collected in patent US20190388350A1, “FORMULATION” (priority 2018, published 2019).
Where a name gives a salt, the structure may show the parent alone.

CCN(C)C(=O)Oc1cccc([C@H](C)N(C)C)c1 [rivastigmine tartrate]
pKa: 8.9
